Experimental data from patent US8629273B2, “Diazinylpyrazolyl compounds” (Bayer Intellectual Property GmbH, priority 2009, dated 2014).

Assays:
Ctenocephalides felis = Ctenocephalides felis oral (CTECFE); assay type: in vivo; details: 100 ppm in citrated cattle blood, after 2 days
Method: Solvent: 1 part by weight of dimethyl sulphoxide To produce a suitable preparation of active compound, 10 mg of active compound are mixed with 0.5 ml of dimethyl sulphoxide. One part of the concentrate is diluted with citrated cattle blood, and the desired concentration is prepared. 20 unfed adult fleas (Ctenocephalides felis) are placed into a chamber whose top and bottom ends are closed with gauze. A metal cylinder whose bottom end is closed with parafilm is placed onto the chamber. The cylinder contains the blood/active compound preparation, which can be taken up by the fleas through the parafilm membrane. After 2 days, the kill in % is determined. 100% means that all fleas have been killed; 0% means that none of the fleas have been killed.

[1] = logP by HPLC on reversed-phase columns (C 18), EU Guideline 79/831 Annex V.A8; assay type: physicochemical
Boophilus microplus = Boophilus microplus test (BOOPMI injection); assay type: in vivo; details: 20 μg/animal, injected into the abdomen, after 7 days
Method: Solvent: Dimethyl Sulphoxide To produce a suitable preparation of active compound, 10 mg of active compound are mixed with 0.5 ml of solvent, and the concentrate is diluted with water to the desired concentration. The active compound solution is injected into the abdomen (Boophilus microplus) and the animals are transferred into dishes and stored in a climatized room. The activity is monitored for deposition of fertile eggs. After 7 days, the activity in % is determined. 100% means that none of the ticks has laid fertile eggs.

Lucilia cuprina larvae = assay: Lucilia cuprina test (LUCICU); assay type: in vivo; details: 100 ppm, treated horse meat, after 2 days
Method: Solvent: Dimethyl Sulphoxide To produce a suitable preparation of active compound, 10 mg of active compound are mixed with 0.5 ml of dimethyl sulphoxide, and the concentrate is diluted with water to the desired concentration. Containers containing horse meat treated with the active compound preparation of the desired concentration are populated with Lucilia cuprina larvae. After 2 days, the kill in % is determined. 100% means that all larvae have been killed; 0% means that none of the larvae have been killed.

[2] = test system: larvae of the mustard beetle (Phaedon cochleariae); assay: Phaedon test (PHAECO spray treatment); assay type: in vivo; details: after 7 days
Method: Solvents: 78.0 parts by weight of acetone • • 1.5 parts by weight of dimethyl formamide Emulsifier: 0.5 part by weight of alkylaryl polyglycol ether To produce a suitable preparation of active compound, 1 part by weight of active compound is mixed with the stated amounts of solvent and emulsifier, and the concentrate is diluted with emulsifier-containing water to the desired concentration. Discs of Chinese cabbage leaves (Brassica pekinensis) are sprayed with an active compound preparation of the desired concentration and, after drying, populated with larvae of the mustard beetle (Phaedon cochleariae). After 7 days, the activity in % is determined. 100% means that all beetle larvae have been killed; 0% means that none of the beetle larvae have been killed. The test was carried out and evaluated as described in Example B.4.

[3] = * LC-MS in the acidic range, pH 2.7, 0.1% aqueous formic acid and acetonitrile
[4] = ** LC-MS in the neutral range, pH 7.8, 0.001 molar aqueous ammonium bicarbonate and acetonitrile

SMILES | kill (Ctenocephalides felis) | logP [1, 3] | activity (no deposition of fertile eggs) (Boophilus microplus) | activity (beetle larvae killed) ([2]; 100 g/ha) | also measured
COc1nccnc1-n1nc(C(F)(F)F)c(-c2cc(Cl)cc(C(F)(F)F)c2)c1N=CN(C)C [Example 2-1] | 80% | 4.52* |  |  | 
COC=Nc1c(-c2ccc(Cl)c(C(F)(F)F)c2)c(C(F)(F)F)nn1-c1ncccn1 [Example 1-91] |  | 3.71 |  |  | 
CN(C)C=Nc1c(-c2cc(Cl)cc(C(F)(F)F)c2)c(C(F)(F)F)nn1-c1ncccn1 [Example 1-2] | 100% | 3.89* | 95% | 100% | kill (Lucilia cuprina larvae): 100%; logP [1, 4]: 3.84**;
COc1nccnc1-n1nc(C(F)(F)F)c(-c2cc(Cl)c(Cl)c(Cl)c2)c1/N=C/c1ccccc1 [Example 2-15, 1-(3-methoxypyrazin-2-yl)-N-phenylmethylene-4-(3,4,5-trichlorophenyl)-3-(trifluoromethyl)-1H-pyrazol-5-amine] | 90% |  | 100% |  | kill (Lucilia cuprina larvae): 100%; chromatographic logP ([1]; reversed-phase HPLC column (C 18), pH 7.8, ** LC-MS in the neutral range, pH 7.8, 0.001 molar aqueous ammonium bicarbonate and acetonitrile): 6.03
CN(C)C=Nc1c(-c2ccc(Cl)c(Cl)c2)c(C(F)(F)F)nn1-c1ncccn1 [Example 1-3] | 100% | 3.37* | 100% | 100% | kill (Lucilia cuprina larvae): 100%
CN(C)C=Nc1c(-c2ccc(Cl)cc2)c(C(F)(F)F)nn1-c1ncc(Cl)cn1 [Example 1-108] |  | 3.47* |  |  | 
CC(C)Oc1nccnc1-n1nc(C(F)(F)F)c(-c2cc(Cl)cc(C(F)(F)F)c2)c1N=CN(C)C [Example 2-3] |  | 5.17* |  |  | 
FC(F)(F)c1cc(Cl)cc(-c2c(C(F)(F)F)nn(-c3ncccn3)c2NCc2ccc(Cl)cc2)c1 [compound (XXIII), reference compound] |  |  |  |  | activity (beetle larvae killed) ([2]; 20 g/ha): no activity
Cc1nn(-c2ncccn2)c(N=CN(C)C)c1-c1ccc(Cl)cc1 [Example 1-7] |  | 1.09* |  | 100% | 
COc1ccc(C=Nc2c(-c3cc(Cl)cc(C(F)(F)F)c3)c(C(F)(F)C(F)F)nn2-c2nccnc2OC)cc1 [Example 2-10] |  |  |  |  | logP [1, 4]: 5.29**
CN(C)C=Nc1c(-c2ccc(Cl)cc2)c(C(F)(F)Cl)nn1-c1ncccn1 [Example 1-4] |  | 2.8* |  | 100% | 
Cc1cnc(-n2nc(C(F)(F)F)c(-c3ccc(Cl)c(Cl)c3)c2N=CN(C)C)nc1 [Example 1-6] |  | 3.58* |  |  | 
CN(C)C=Nc1c(-c2cccc(Cl)c2)c(C(F)(F)F)nn1-c1ncccn1 [Example 1-8] |  | 2.65* |  | 100% | 
FC(F)(F)c1cc(Cl)cc(-c2c(C(F)(F)F)nn(-c3ncccn3)c2N=Cc2ccc(Cl)cc2)c1 [Example 1-16] |  |  | 100% | 100% | activity (beetle larvae killed) ([2]; 20 g/ha): 100%; logP [1, 4]: 5.53**
FC(F)(F)c1nn(-c2ncccn2)c(N=Cc2ccccc2)c1-c1cc(Br)c2c(c1)CCO2 [Example 1-32] | 100% |  | 100% | 100% | kill (Lucilia cuprina larvae): 100%; logP [1, 4]: 4.11**
CN(C)C=Nc1c(-c2cc(Cl)cc(C(F)(F)F)c2)c(C(F)(F)F)nn1-c1cnccn1 [Example 2-4] |  | 4.32* |  |  | 
CCOc1nccnc1-n1nc(C(F)(F)F)c(-c2cc(Cl)cc(C(F)(F)F)c2)c1N=CN(C)C [Example 2-2] |  | 4.86* |  |  | 
COc1ccc(C=Nc2c(-c3cc(Cl)c4c(c3)OCO4)c(C(F)(F)F)nn2-c2nccnc2OC)cc1 [Example 2-5] | 100% |  | 100% |  | kill (Lucilia cuprina larvae): 100%; logP [1, 4]: 4.5**
COc1ccc(-c2c(C(F)(F)F)nn(-c3ncccn3)c2N=CN(C)C)cc1 [Example 1-5] |  | 1.87* | 100% |  | 
